Results from the NIST ThermoML archive (doi:10.1016/j.jct.2011.12.025).
± gives the expanded uncertainty stated by the source.

Assay: xn = mol fraction of the nth substance listed
Details: 296.15 K, 101 kPa, Liquid, WTW LF538 Conductivity Meter

CCCCCCCCCCn1cc[n+](C)c1.F[B-](F)(F)F [1-decyl-3-methylimidazolium tetrafluoroborate] + O
Details | electrical conductivity [S/m]
x1 = 2.5e-05 | 0.018 ± 0.003
x1 = 3.8e-05 | 0.026 ± 0.003
x1 = 5.1e-05 | 0.034 ± 0.003
x1 = 6.4e-05 | 0.042 ± 0.002
x1 = 7.6e-05 | 0.049 ± 0.002
x1 = 8.9e-05 | 0.056 ± 0.002
x1 = 0.000102 | 0.063 ± 0.002
x1 = 0.000115 | 0.07 ± 0.002
x1 = 0.000128 | 0.076 ± 0.002
x1 = 0.000139 | 0.082 ± 0.002
x1 = 0.000153 | 0.089 ± 0.002
x1 = 0.000166 | 0.096 ± 0.002
x1 = 0.000179 | 0.101 ± 0.002
x1 = 0.000204 | 0.113 ± 0.002
x1 = 0.00023 | 0.125 ± 0.002
x1 = 0.000256 | 0.137 ± 0.002

CCCCCCn1cc[n+](C)c1.F[B-](F)(F)F [1-hexyl-3-methylimidazolium tetrafluoroborate] + O
Details | electrical conductivity [S/m]
x1 = 0.000466 | 0.231 ± 0.003
x1 = 0.000711 | 0.329 ± 0.004
x1 = 0.000949 | 0.419 ± 0.004
x1 = 0.001193 | 0.505 ± 0.005
x1 = 0.001435 | 0.584 ± 0.006
x1 = 0.001677 | 0.663 ± 0.007
x1 = 0.001925 | 0.74 ± 0.008
x1 = 0.002172 | 0.812 ± 0.008
x1 = 0.002421 | 0.875 ± 0.009
x1 = 0.002671 | 0.949 ± 0.01
x1 = 0.002925 | 1.014 ± 0.01
x1 = 0.003177 | 1.07 ± 0.011
x1 = 0.003433 | 1.126 ± 0.011
x1 = 0.003948 | 1.25 ± 0.013
x1 = 0.004469 | 1.36 ± 0.014
x1 = 0.005 | 1.447 ± 0.014

CCCCCCCC[n+]1ccn(C)c1.F[B-](F)(F)F [1-methyl-3-octylimidazolium tetrafluoroborate] + O
Details | electrical conductivity [S/m]
x1 = 0.000109 | 0.067 ± 0.002
x1 = 0.000164 | 0.095 ± 0.002
x1 = 0.000219 | 0.123 ± 0.002
x1 = 0.000274 | 0.149 ± 0.002
x1 = 0.000326 | 0.172 ± 0.002
x1 = 0.000384 | 0.196 ± 0.003
x1 = 0.000439 | 0.22 ± 0.003
x1 = 0.000494 | 0.24 ± 0.003
x1 = 0.000549 | 0.262 ± 0.003
x1 = 0.000605 | 0.284 ± 0.003
x1 = 0.00066 | 0.305 ± 0.003
x1 = 0.000715 | 0.326 ± 0.004
x1 = 0.000772 | 0.346 ± 0.004
x1 = 0.000883 | 0.386 ± 0.004
x1 = 0.000995 | 0.424 ± 0.004
x1 = 0.001107 | 0.463 ± 0.005
